Reference: US12104143B2, “Compositions comprising cellulase with a nonionic surfactant and a quaternary ammonium compound” (ECOLAB USA INC., priority 2018, dated 2024)

Key:
cellulase activity = assay: Shelf life stability by enzyme activity assay, incubated at 37° C. over 8 weeks (Examples 8-10); type: physicochemical; conditions: for remaining cellulase activity: 4 weeks at 37° C.
Description: The impact of pH on shelf life stability was examined. […] The compositions were adjusted to a pH of 4.00, 4.25, and 4.50. Enzyme stability was assessed by an activity assay.
The compositions were adjusted to a pH of 4.25. Two control compositions were also prepared, one without a surfactant and one with the anionic surfactant, […] (SLS), as a negative control. Enzyme stability was assessed by an activity assay. […] The control containing no surfactant approached 0% remaining activity after the 8-week period.
Different stabilizers—glycerol and PEG 200—were tested to assess their effect on shelf life stability of formulations including a quaternary amine. […] The compositions were adjusted to a pH of 4.25. Enzyme stability was assessed by an activity enzyme. A control composition was also prepared having no stabilizer.

[1] = system: dark eyed fruit flies (DEFF); assay: Adult fly emergence test, dark eyed fruit flies (DEFF); type: in vivo; conditions: 1.8% sodium citrate, pH about 4.5; 1% active Bardac 205M, 0.5% Cellulase B or 2% Tween 20 (Test Comp. C, B, A)
Description: Tests were performed to assess the cleaning compositions' effectiveness against insects. Small flies, which are common near clogged drains for beverage towers were used for these tests. Carolina Biological Formula 2-24 Instant Drosophila Medium was mixed with water in equal parts liquid to media by volume. A small pinch of active yeast was also added. The media was allowed to sit for two days before the start of the test, allowing the yeast time to ferment and ensure there will be enough food available for fly larvae when introduced in the media. Ten larvae of each fly species are placed into the fruit fly vials containing media two days after starting the media. The age of the larvae varies, but the majority of the larvae in each vial were mid instars larvae. Mature larvae were avoided to prevent pupation before the product is added. Each treatment had 5 replicates, for a total of 50 larvae of each species per treatment. Larvae were collected from the media of existing fly rearing containers. Emergence of adult flies was recorded at one week, two weeks, and three weeks to determine how many of the […] larvae had completed development and emerged as adults. The test was maintained at 80° F. and ambient humidity. Tween 20 was tested as an exemplary nonionic surfactant. DRAIN EASE FLOW from Novozymes was tested as an exemplary enzyme composition. […]

DRAIN EASE FLOW activity = assay: Enzyme stability: retained DRAIN EASE FLOW activity in degrading a sugar snake after incubation at 37° C. (Example 6); type: physicochemical; conditions: 20% stabilizer, 1.0% active Bardac 205M, pH about 4.5
Description: Enzyme stability was tested in cleaning compositions prepared with differing stabilizers. […] The effect of pH on stability was also assessed by testing compositions at a pH of 4.5 and 5.5. […] Enzyme stability was again assessed by an activity assay. […] This increased stability is even more pronounced when formulated with 1% active Bardac […].

[2] = Cellulase catalyzed hydrolysis of bacterial cellulose (sugar snake degradation) with stabilizers (Example 7); type: biochemical; conditions: 10% stabilizer; 0.5 wt. % DRAIN EASE FLOW, 2 wt. % Tween 20, 0.1 wt. % Bardac 205M, pH about 4.0; 20 mL/g, 2 hours
Description: The stabilizers tested were PEG 200, Glycerol, Propylene Glycol, and Sucrose. A composition was also prepared without a stabilizer. All the compositions were prepared in water at a pH of about 4.0. A piece of sugar snake weighing about 5 grams was used to screen enzyme performance. The chemistry was dosed at 20 mL/g sugar snake and incubated for 2 hours. The relative enzyme performance was determined at each concentration by comparing the performance to control formulations lacking stabilizer. The results are provided in FIG. 11 where 40 indicates 40% degradation.

## CCCCCCCCCCCC(=O)OCCOCCOCCOCCOCCOCCOCCOCCOCCOCCOCCOCCOCCOCCOCCOCCOCCOCCOCCOCCOCC(OCCOCCOCCOCCOCCOCCOCCOCCOCCOCCOCCOCCOCCOCCOCCOCCOCCOCCOCCOCCO)C1OCC(OCCOCCOCCOCCOCCOCCOCCOCCOCCOCCOCCOCCOCCOCCOCCOCCOCCOCCOCCOCCO)C1OCCOCCOCCOCCOCCOCCOCCOCCOCCOCCOCCOCCOCCOCCOCCOCCOCCOCCOCCOCCO (stereo not drawn) [Tween 20, polyethylene glycol sorbitan monolaurate]
Cellulase activity; 2 wt. % surfactant (or none), 0.2 wt. % Bardac 205M, 10 wt. % PEG 200, 0.5 wt. % DRAIN EASE FLOW, pH 4.25, 37° C.
  residual activity after 8 weeks: 55%
Cellulase activity; 2 wt. % surfactant, 0.2 wt. % Bardac 205M, 10 wt. % PEG 200, pH 4.25, 37° C., 8 weeks
  shelf stability ranking among surfactants: best stability
[1]
  adult DEFF emergence relative to the water and buffer only controls: not statistically significant

## OCC(O)CO [glycerol]
DRAIN EASE FLOW activity
  enzyme stability relative to control formulations lacking stabilizer: enhanced stability
Cellulase activity; 10% stabilizer, both quaternary amine concentrations (175 ppm and 1000 ppm), pH 4.25
  remaining cellulase activity: > 95%
Cellulase activity; 10 wt. % stabilizer or none, 175 ppm or 1000 ppm Bardac 205M, pH 4.25, 37° C.
  shelf life stability ranking among stabilizers: best stability

## CC(O)CO (stereo not drawn) [propylene glycol]
DRAIN EASE FLOW activity
  enzyme stability relative to control formulations lacking stabilizer: did not enhance stability

## OC[C@H]1O[C@@](CO)(O[C@H]2O[C@H](CO)[C@@H](O)[C@H](O)[C@H]2O)[C@@H](O)[C@@H]1O [sucrose]
[2]
  sugar snake degradation performance versus control formulations lacking stabilizer: did not statistically impact performance

## polyethylene glycol 200 [PEG 200]
DRAIN EASE FLOW activity
  enzyme stability relative to control formulations lacking stabilizer: enhanced stability
Cellulase activity; 10% stabilizer, 175 ppm quaternary amine, pH 4.25
  remaining cellulase activity: > 40%
Cellulase activity; 10% stabilizer, 1000 ppm quaternary, pH 4.25, 37° C.
  shelf life stability: enhanced stability

## polyethylene glycol 400 [PEG 400]
DRAIN EASE FLOW activity
  enzyme stability relative to control formulations lacking stabilizer: did not enhance stability
